{
  "source": "patent US8145437B2",
  "about": "“System and method to obtain oligo-peptides with specific high affinity to query proteins” (priority 2005, dated 2012)",
  "key": {"GAL4 peptide": {"system": "GAL4 peptide", "experiment": "Binding of fluorescent labeled GAL4 peptide to protein extracts of monoclonal clones", "details": "other proteins tested even in much higher concentrations"}, "[1]": {"molecular_target": "T1, dimerisation domain of 1HBW REGULATORY PROTEIN GAL4 (Saccharomyces cerevisiae, UniProt P04386)", "T1 construct": "the dimerisation domain of 1HBW REGULATORY PROTEIN GAL4 inserted into pBT (as it is provided and described by Stratagene); host or cells: E. coli BacterioMatch two-hybrid reporter strain (derived from XL1-Blue MRF')", "T1 sequence (P04386 50-106 limits assumed)": "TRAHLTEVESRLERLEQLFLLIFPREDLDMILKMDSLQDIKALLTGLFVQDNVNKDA", "experiment": "BacterioMatch two-hybrid assay with Target Oligo Pool in pTRG vector", "assay_type": "cell-based", "details": "ampicillin-resistant reporter", "procedure": "The BacterioMatch™ two-hybrid system* (Stratagene, 11011 N. Torrey Pines Road La Jolla, Calif. 92037) was used to Quickly Detect Protein-Protein Interactions designed by the recent Method. It is a simple alternative or complement to yeast two-hybrid systems for in vivo detection of protein-protein interactions. Because the two-hybrid assay is performed in bacteria, results are obtained more easily and quickly than in yeast. The system is based on transcriptional activation of a primary ampicillin-resistant reporter and a secondary β-galactosidase reporter for validation. The BacterioMatch two-hybrid system is based on a methodology developed by Dove, Joung, and Hochschild of Harvard Medical School.\nThe BacterioMatch two-hybrid system is based on transcriptional activation (FIG. 4). A protein of interest—the bait—is fused to the full-length bacteriophage repressor protein (.lamda.cI). The corresponding target protein is fused to the amino-terminal domain of the α-subunit of RNA polymerase (RNAPα). The bait is tethered to the […] sequence upstream of the reporter promoter through the DNA-binding domain of .lamda.cI. If the bait and target interact, they recruit and stabilize the binding of RNA polymerase close to the promoter and activate the transcription of the ampicillin-resistant reporter gene in the BacterioMatch two-hybrid reporter strain. […]"}},
  "data": [
    {"molecule": "Unlabelled GAL4: unlabelled GAL4 peptide, the query, used as competitor of labeled GAL4 (ESRLERLEQLFLLIF)", "values": [
      {"measurement": "competition with binding of labeled GAL4 to the proteins from positive clones", "setting": "GAL4 peptide", "value": "inhibited"}
    ]},
    {"molecule": "growth hormone", "values": [
      {"measurement": "competition with binding of labeled GAL4 to the proteins from positive clones", "setting": "GAL4 peptide", "value": "ineffective competitors"}
    ]},
    {"molecule": "prolactin (protein, UniProt P01236 29-227, looked up) Prolactin: LPICPGGAARCQVTLRDLFDRAVVLSHYIHNLSSEMFSEFDKRYTHGRGFITKAINSCHTSSLATPEDKEQAQQMNQKDFLSLIVSILRSWNEPLYHLVTEVRGMQEAPEAILSKAVEIEEQTKRLLEGMELIVSQVHPETKENEIYPVWSGLPSLQMADEESRLSAYYNLLHCLRRDSHKIDNYLKLLKCRIIHNNNC", "values": [
      {"measurement": "competition with binding of labeled GAL4 to the proteins from positive clones", "setting": "GAL4 peptide", "value": "ineffective competitors"}
    ]},
    {"molecule": "TARGET TEMPLATE to … (GAL4 17-31AA): Target oligo template pool, 1st and 3rd codon letters reverse-complementary to Gal4 coding sequence 17-31, 2nd letter undefined (nucleic acid, listed as DNA, chemistry not fully specified; the letters are possibly those of the target site) DNA: GGATCCATGANTCNTGNCANGGNCTNCTNGANGANAANTCNGTNGANATNGCNGATTCGGCCGC", "values": [
      {"measurement": "positive bacterial clones growing on double selective medium", "setting": "[1]", "value": "numerous positive bacterial clones"}
    ]}
  ]
}
